# Source: US20250304916A1, “METHODS AND COMPOSITIONS FOR GENERATING VASCULAR LEPTOMENINGEAL CELLS” (Trailhead Biosystems Inc., priority 2024, published 2025)
# Where “and” joins values, the source holds several entries; their conditions need not be identical. Identical values can stand only once.
# Legend:
# Assay type in all cases: cell-based, human
# [1] = test system: PDGFRA expression; test: HD-DoE 8-factor modeling experiment (stage 3), model optimized for maximum expression of PDGFRA; conditions: FIG. 2; for factor contribution, positive impact on PDGFRA expression: model optimized for maximum expression of PDGFRA at 853; for factor contribution, negative impact on PDGFRA expression: model optimized for maximum expression of PDGFRA
# Protocol: (§1) To engineer the recipe of stage 3 of differentiation, cells were first cultured in stage 1 and stage 2 media (described in detail in US Publications 2022/0315891 and 2024/0043798). Then, 48 or 96 different combinations of effectors generated using HD-DoE compression through D-optimality were robotically prepared. The effector combinations were prepared in a basal media and were subsequently added to the cells, which were then allowed to differentiate. 3 days later RNA extraction was performed, and gene expression was obtained using quantitative PCR analysis. The data was normalized and modeled using partial least squares regression analysis to the effector design, resulting in the generation of gene-specific models, which after model tuning for maximal predictive power, provided explanation of the effectors ability to control the expression of individual genes, combinatorically, and individually. Solutions within the tested space were then further explored to address desirability.
# (§2) In one 8-factor modeling experiment, the individual and combinatorial effect of CHIR99021 (a WNT pathway agonist), AGN193109 (an RA pathway antagonist), FGF-2 (FGFR pathway agonist), Purmorphamine (a SHH pathway agonist), TTNPB (an RA pathway agonist), IGF-1 (an IGF-1 pathway agonist), MHY1485 (a mTOR pathway agonist), and Sc79 (an Akt pathway agonist), on further differentiation of cells were tested. […] Sc79 had the highest negative impact on its expression with factor contribution of 30.
# The highest positive contribution was from Purmorphamine with factor contribution of 21 and IGF-1 with factor contribution of 11. MHY1485 and AGN193109 had the highest negative impact with factor contribution of 21 and 23, respectively (FIG. 2). […] When the model was optimized, expression levels were observed of NKX2-2 at 1200, OLIG1 at 550, OLIG2 at 1000, PDGFRA at 500, SOX8 at 70, and SOX10 at 35 (FIG. 4).
# [2] = test system: MBP expression; test: HD-DoE 8-factor model (stage 4), optimized for maximum expression of MBP; conditions: model optimized for MBP at 274; FIG. 6
# [3] = test system: SOX8 expression; test: HD-DoE 8-factor modeling experiment (stage 3), model optimized for maximal expression of SOX8; conditions: FIG. 3
# Protocol: as §1
# In one 8-factor modeling experiment, the individual and combinatorial effect of CHIR99021 (a WNT pathway agonist), AGN193109 (an RA pathway antagonist), FGF-2 (FGFR pathway agonist), Purmorphamine (a SHH pathway agonist), TTNPB (an RA pathway agonist), IGF-1 (an IGF-1 pathway agonist), MHY1485 (a mTOR pathway agonist), and Sc79 (an Akt pathway agonist), on further differentiation of cells were tested. […]
# [4] = test system: OLIG1 and NKX2-2 expression; test: HD-DoE 12-factor modeling experiment (stage 3), models optimized for maximal expression of OLIG1 and NKX2-2 simultaneously; conditions: FIG. 5; for factor contribution, positive effect on upregulation of OLIG1 and NKX2-2: models optimized for OLIG1 (192) and NKX2-2 (486) simultaneously
# Protocol: as §1
# Another 12-factor modeling experiment was performed to study the effect of additional factors on expression level of target genes at stage 3. In this experiment, Activin A, Linoleic acid (a polyunsaturated fatty acid), DBZ (GSI-XX) (a NOTCH pathway inhibitor), ZM336372 (a c-Raf inhibitor), AZD3147 (a mTOR pathway inhibitor), PDGF-AA (a PDGF pathway agonist) and MK2206 (an Akt pathway inhibitor), along with AGN193109, TTNPB, FGF2, IGF-1, and MHY1485, were tested. According to literature, proteins such as FGF-2, IGF-1, and PDGF-AA play an important role in oligodendrocyte differentiation (Goldman and Kuypers (2015) Development 142:3983-95). Models were optimized for maximal expression of OLIG1 with expression level of 192 and NKX2-2 with expression level of 486 simultaneously. […] MK2206 with factor contribution of 19 had the highest negative impact on expression of these genes. […] To confirm the impact of identified factors on a bigger scale, the expression profile of a larger group of genes defining late oligodendrocyte progenitor population (Perlman et al. (2020) Glia 68:1291-1303; Goldman and Kuypers (2015) Development 142:3983-95; van Tilborg et al. (2018) Glia 66:221-238) was investigated. At maximal expression of OLIG1 and NKX2-2, other desired genes such as CNP, IGFBP2, MYC, and MYT-1 were highly expressed, while neuronal genes, NEUROD1, NEUROG1, and NEUROG2 had expression levels less than 30.
# [5] = test system: SOX10 expression; test: HD-DoE 8-factor modeling experiment (stage 3), model optimized for maximum expression of SOX10, qPCR gene expression; conditions: for effect on expression of SOX10 (dynamic profile): model optimized for maximal SOX10 expression, FIG. 4; for factor contribution, positive regulatory effect on SOX10 expression: model optimized for maximum expression of SOX10 at 40
# Protocol: as §1, §2
compound,measurement,setting,value
c1ccc2c(Oc3nc(Nc4ccc(N5CCOCC5)cc4)c4ncn(C5CCCCC5)c4n3)cccc2c1 [Purmorphamine],"factor contribution, positive impact on PDGFRA expression",[1],21 and 20.6
N[C@@H](Cc1cc(I)c(Oc2ccc(O)c(I)c2)c(I)c1)C(=O)O [T3],"factor contribution, positive impact on MBP expression",[2],18.1
O=[N+]([O-])c1ccc(Nc2nc(N3CCOCC3)nc(N3CCOCC3)n2)cc1 [MHY1485],"factor contribution, negative impact on PDGFRA expression",[1],21
same,"factor contribution, positive effect on SOX8 expression",[3],13 and 13.2
Dibenzazepine [DBZ],"factor contribution, positive effect on upregulation of OLIG1 and NKX2-2",[4],13
same,"factor contribution, positive effect on upregulation of OLIG1 and NKX2-2",[4]; listed as GSI-XX (DBZ),13.2
same,"factor contribution, positive impact on MBP expression",[2],18.1
CCOC(=O)C1=C(N)Oc2ccc(Cl)cc2C1C(C#N)C(=O)OCC (centres unmarked) [Sc79],"factor contribution, negative impact on SOX10 expression","[5]; model optimized for maximum expression of SOX10, FIG. 1",30
C/C(=C\c1ccc(C(=O)O)cc1)c1ccc2c(c1)C(C)(C)CCC2(C)C [TTNPB],effect on expression of SOX10 (dynamic profile),[5],positive effect
same,"factor contribution, positive regulatory effect on SOX10 expression",[5]; FIG. 1,18
same,"factor contribution, positive impact on PDGFRA expression",[1],0.6
PDGF-AA: a PDGF pathway agonist; ligand of a PDGFR,"factor contribution, positive effect on upregulation of OLIG1 and NKX2-2",[4],21
CCCCC/C=C\C/C=C\CCCCCCCC(=O)O [linoleic acid],"factor contribution, positive effect on upregulation of OLIG1 and NKX2-2",[4],12
Cc1ccc(C2=CCC(C)(C)c3ccc(C#Cc4ccc(C(=O)O)cc4)cc32)cc1 [AGN193109],"factor contribution, negative impact on PDGFRA expression",[1],23
NC1(c2ccc(-c3nc4ccn5c(=O)[nH]nc5c4cc3-c3ccccc3)cc2)CCC1 [MK2206],"factor contribution, negative impact on expression of OLIG1 and NKX2-2",[4]; models optimized for OLIG1 and NKX2-2 simultaneously,19
IGF-1: insulin-like growth factor 1; an IGF-1 pathway agonist,expression level of SOX10 after addition of IGF-1 to the suggested recipe,"[5]; dynamic profile analysis, decreased from 40 without IGF-1",35
same,"factor contribution, positive impact on PDGFRA expression",[1],11 and 11.22
same,"factor contribution, positive effect on SOX8 expression",[3],16 and 15.6
FGF-2: FGFR pathway agonist; naturally occurring ligand,effect on expression of SOX10 (dynamic profile),[5],positive effect
same,"factor contribution, positive regulatory effect on SOX10 expression",[5]; FIG. 1,15
Cc1c[nH]c(-c2cnc(NCCNc3ccc(C#N)cn3)nc2-c2ccc(Cl)cc2Cl)n1 [CHIR99021],effect on expression of SOX10 (dynamic profile),[5],positive effect
same,"factor contribution, positive regulatory effect on SOX10 expression",[5]; FIG. 1,8
same,"factor contribution, positive impact on PDGFRA expression",[1],8
